{"source": "patent US20260262643A1", "about": "“HERBICIDAL BENZOXAZINES” (FMC CORPORATION, priority 2022, published 2026)", "key": {"barnyardgrass [1]": {"tested_on": "barnyardgrass", "test": "Test C preemergence", "assay_type": "in vivo, Echinochloa crusgalli", "details": "0 to 100 scale (0 no effect, 100 complete control)", "method_in_brief": "(§1)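 Pre: seeds in loam/sand, directed soil spray. Post: 1–2 leaf plants, 2–10 cm. Cmpd in non-phytotoxic solvent + surfactant. Greenhouse 10 d; visual rating vs untreated, 0 = none, 100 = complete control.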"}, "blackgrass [2]": {"tested_on": "blackgrass", "test": "Test C preemergence", "assay_type": "in vivo, Alopecurus myosuroides", "details": "0 to 100 scale (0 no effect, 100 complete control)", "method_in_brief": "as §1"}, "corn [3]": {"tested_on": "corn", "test": "Test C preemergence", "assay_type": "in vivo, Zea mays", "details": "0 to 100 scale (0 no effect, 100 complete control)", "method_in_brief": "as §1"}, "green foxtail [4]": {"tested_on": "green foxtail", "test": "Test C preemergence", "assay_type": "in vivo, Setaria viridis", "details": "0 to 100 scale (0 no effect, 100 complete control)", "method_in_brief": "as §1"}, "kochia [5]": {"tested_on": "kochia", "test": "Test C preemergence", "assay_type": "in vivo, Bassia scoparia", "details": "0 to 100 scale (0 no effect, 100 complete control)", "method_in_brief": "as §1"}, "oat, wild [6]": {"tested_on": "oat, wild", "test": "Test C preemergence", "assay_type": "in vivo, Avena fatua", "details": "0 to 100 scale (0 no effect, 100 complete control)", "method_in_brief": "as §1"}, "pigweed, palmer [7]": {"tested_on": "pigweed, palmer", "test": "Test C preemergence", "assay_type": "in vivo, Amaranthus palmeri", "details": "0 to 100 scale (0 no effect, 100 complete control)", "method_in_brief": "as §1"}, "ragweed [8]": {"tested_on": "ragweed", "test": "Test C preemergence", "assay_type": "in vivo, Ambrosia artemisiifolia", "details": "0 to 100 scale (0 no effect, 100 complete control)", "method_in_brief": "as §1"}, "ryegrass, Italian [9]": {"tested_on": "ryegrass, Italian", "test": "Test C preemergence", "assay_type": "in vivo, Lolium multiflorum", "details": "0 to 100 scale (0 no effect, 100 complete control)", "method_in_brief": "as §1"}, "soybean [10]": {"tested_on": "soybean", "test": "Test C preemergence", "assay_type": "in vivo, Glycine max", "details": "0 to 100 scale (0 no effect, 100 complete control)", "method_in_brief": "as §1"}, "wheat [11]": {"tested_on": "wheat", "test": "Test C preemergence", "assay_type": "in vivo, Triticum aestivum", "details": "0 to 100 scale (0 no effect, 100 complete control)", "method_in_brief": "as §1"}, "barnyardgrass [12]": {"tested_on": "barnyardgrass", "test": "Test C postemergence", "assay_type": "in vivo, Echinochloa crusgalli", "details": "10 days", "method_in_brief": "as §1"}, "blackgrass [13]": {"tested_on": "blackgrass", "test": "Test C postemergence", "assay_type": "in vivo, Alopecurus myosuroides", "details": "10 days", "method_in_brief": "as §1"}, "corn [14]": {"tested_on": "corn", "test": "Test C postemergence", "assay_type": "in vivo, Zea mays", "details": "10 days", "method_in_brief": "as §1"}, "green foxtail [15]": {"tested_on": "green foxtail", "test": "Test C postemergence", "assay_type": "in vivo, Setaria viridis", "details": "10 days", "method_in_brief": "as §1"}, "kochia [16]": {"tested_on": "kochia", "test": "Test C postemergence", "assay_type": "in vivo, Bassia scoparia", "details": "10 days", "method_in_brief": "as §1"}, "oat, wild [17]": {"tested_on": "oat, wild", "test": "Test C postemergence", "assay_type": "in vivo, Avena fatua", "details": "10 days", "method_in_brief": "as §1"}, "pigweed, palmer [18]": {"tested_on": "pigweed, palmer", "test": "Test C postemergence", "assay_type": "in vivo, Amaranthus palmeri", "details": "10 days", "method_in_brief": "as §1"}, "ragweed [19]": {"tested_on": "ragweed", "test": "Test C postemergence", "assay_type": "in vivo, Ambrosia artemisiifolia", "details": "10 days", "method_in_brief": "as §1"}, "ryegrass, Italian [20]": {"tested_on": "ryegrass, Italian", "test": "Test C postemergence", "assay_type": "in vivo, Lolium multiflorum", "details": "10 days", "method_in_brief": "as §1"}, "soybean [21]": {"tested_on": "soybean", "test": "Test C postemergence", "assay_type": "in vivo, Glycine max", "details": "10 days", "method_in_brief": "as §1"}, "wheat [22]": {"tested_on": "wheat", "test": "Test C postemergence", "assay_type": "in vivo, Triticum aestivum", "details": "10 days", "method_in_brief": "as §1"}, "galium": {"tested_on": "galium", "test": "Test C postemergence", "assay_type": "in vivo, Galium aparine", "details": "10 days", "method_in_brief": "as §1"}, "horseweed": {"tested_on": "horseweed", "test": "Test C postemergence", "assay_type": "in vivo, Erigeron canadensis", "details": "10 days", "method_in_brief": "as §1"}, "barnyardgrass [23]": {"tested_on": "barnyardgrass", "test": "Test D flooded paddy test", "assay_type": "in vivo, Echinochloa crus-galli", "details": "250 g ai/ha, applied to paddy water, visual rating after 13 to 14 days, scale 0 to 100 (0 no effect, 100 complete control)", "method_in_brief": "(§2)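 Plants at the 2-leaf stage were grown in pots flooded to 3 cm, and compound was applied directly into the paddy water, with depth kept throughout. After 13–14 days in a greenhouse, injury was rated visually against untreated controls on a 0–100 scale (100 = complete control); a dash means not tested.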"}, "ducksalad": {"tested_on": "ducksalad", "test": "Test D flooded paddy test", "assay_type": "in vivo, Heteranthera limosa", "details": "250 g ai/ha, applied to paddy water, visual rating after 13 to 14 days, scale 0 to 100 (0 no effect, 100 complete control)", "method_in_brief": "as §2"}, "rice": {"tested_on": "rice", "test": "Test D flooded paddy test", "assay_type": "in vivo, Oryza sativa", "details": "250 g ai/ha, applied to paddy water, visual rating after 13 to 14 days, scale 0 to 100 (0 no effect, 100 complete control)", "method_in_brief": "as §2"}, "sedge, umbrella": {"tested_on": "sedge, umbrella", "test": "Test D flooded paddy test", "assay_type": "in vivo, Cyperus difformis", "details": "250 g ai/ha, applied to paddy water, visual rating after 13 to 14 days, scale 0 to 100 (0 no effect, 100 complete control)", "method_in_brief": "as §2"}, "[24]": {"details": "Preemergence, 500 g ai/ha, visual rating after 10 days"}, "[25]": {"details": "Test C, preemergence, 125 g ai/ha"}, "[26]": {"details": "125 g ai/ha, postemergence, 0 to 100 scale, 0 no effect, 100 complete control"}, "[27]": {"details": "Postemergence, 500 g ai/ha, visual 0 to 100 scale (0 no effect, 100 complete control)"}}}
{"smiles": "Cc1ccc(-n2cnc(C(C)(C)C)n2)cc1C(=O)N1CC(C(F)(F)F)Oc2c(Cl)cccc21", "note": "(single isomer, unassigned) [Compound 192]", "values": [{"measurement": "Plant response rating, Barnyardgrass", "setting": "barnyardgrass [1]; [24]", "result": 90}, {"measurement": "Barnyardgrass plant response rating", "setting": "barnyardgrass [1]; [25]", "result": 60}, {"measurement": "Plant response rating, Blackgrass", "setting": "blackgrass [2]; [24]", "result": 80}, {"measurement": "Blackgrass plant response rating", "setting": "blackgrass [2]; [25]", "result": 70}, {"measurement": "Plant response rating, Corn", "setting": "corn [3]; [24]", "result": 20}, {"measurement": "Corn plant response rating", "setting": "corn [3]; [25]", "result": 20}, {"measurement": "Plant response rating, Foxtail, Green", "setting": "green foxtail [4]; [24]", "result": 100}, {"measurement": "Foxtail, Green plant response rating", "setting": "green foxtail [4]; [25]", "result": 100}, {"measurement": "Plant response rating, Kochia", "setting": "kochia [5]; [24]", "result": 100}, {"measurement": "Kochia plant response rating", "setting": "kochia [5]; [25]", "result": 60}, {"measurement": "Plant response rating, Oat, Wild", "setting": "oat, wild [6]; [24]", "result": 90}, {"measurement": "Oat, Wild plant response rating", "setting": "oat, wild [6]; [25]", "result": 40}, {"measurement": "Plant response rating, Pigweed, Palmer", "setting": "pigweed, palmer [7]; [24]", "result": 100}, {"measurement": "Pigweed, Palmer plant response rating", "setting": "pigweed, palmer [7]; [25]", "result": 90}, {"measurement": "Plant response rating, Ragweed", "setting": "ragweed [8]; [24]", "result": 80}, {"measurement": "Ragweed plant response rating", "setting": "ragweed [8]; [25]", "result": 10}, {"measurement": "Plant response rating, Ryegrass, Italian", "setting": "ryegrass, Italian [9]; [24]", "result": 90}, {"measurement": "Ryegrass, Italian plant response rating", "setting": "ryegrass, Italian [9]; [25]", "result": 90}, {"measurement": "Plant response rating, Soybean", "setting": "soybean [10]; [24]", "result": 90}, {"measurement": "Soybean plant response rating", "setting": "soybean [10]; [25]", "result": 30}, {"measurement": "Plant response rating, Wheat", "setting": "wheat [11]; [24]", "result": 30}, {"measurement": "Wheat plant response rating", "setting": "wheat [11]; [25]", "result": 0}, {"measurement": "Plant response rating, Barnyardgrass", "setting": "barnyardgrass [12]; [26]", "result": 20}, {"measurement": "Plant response rating, Barnyardgrass", "setting": "barnyardgrass [12]; [27]", "result": 50}, {"measurement": "Plant response rating, Blackgrass", "setting": "blackgrass [13]; [26]", "result": 30}, {"measurement": "Plant response rating, Blackgrass", "setting": "blackgrass [13]; [27]", "result": 30}, {"measurement": "Plant response rating, Corn", "setting": "corn [14]; [26]", "result": 10}, {"measurement": "Plant response rating, Corn", "setting": "corn [14]; [27]", "result": 20}, {"measurement": "Plant response rating, Foxtail, Green", "setting": "green foxtail [15]; [26]", "result": 10}, {"measurement": "Plant response rating, Foxtail, Green", "setting": "green foxtail [15]; [27]", "result": 80}, {"measurement": "Plant response rating, Kochia", "setting": "kochia [16]; [26]", "result": 80}, {"measurement": "Plant response rating, Kochia", "setting": "kochia [16]; [27]", "result": 100}, {"measurement": "Plant response rating, Oat, Wild", "setting": "oat, wild [17]; [26]", "result": 20}, {"measurement": "Plant response rating, Oat, Wild", "setting": "oat, wild [17]; [27]", "result": 50}, {"measurement": "Plant response rating, Pigweed, Palmer", "setting": "pigweed, palmer [18]; [26]", "result": 90}, {"measurement": "Plant response rating, Pigweed, Palmer", "setting": "pigweed, palmer [18]; [27]", "result": 100}, {"measurement": "Plant response rating, Ragweed", "setting": "ragweed [19]; [26]", "result": 90}, {"measurement": "Plant response rating, Ragweed", "setting": "ragweed [19]; [27]", "result": 100}, {"measurement": "Plant response rating, Ryegrass, Italian", "setting": "ryegrass, Italian [20]; [26]", "result": 40}, {"measurement": "Plant response rating, Ryegrass, Italian", "setting": "ryegrass, Italian [20]; [27]", "result": 50}, {"measurement": "Plant response rating, Soybean", "setting": "soybean [21]; [26]", "result": 100}, {"measurement": "Plant response rating, Soybean", "setting": "soybean [21]; [27]", "result": 100}, {"measurement": "Plant response rating, Wheat", "setting": "wheat [22]; [26]", "result": 20}, {"measurement": "Plant response rating, Wheat", "setting": "wheat [22]; [27]", "result": 20}, {"measurement": "Plant response rating, Galium", "setting": "galium; [26]", "result": 100}, {"measurement": "Plant response rating, Galium", "setting": "galium; [27]", "result": 100}, {"measurement": "Plant response rating, Horseweed", "setting": "horseweed; [26]", "result": 0}, {"measurement": "Plant response rating, Horseweed", "setting": "horseweed; [27]", "result": 30}, {"measurement": "Plant response rating, Barnyardgrass (Flood)", "setting": "barnyardgrass [23]", "result": 0}, {"measurement": "Plant response rating, Ducksalad (Flood)", "setting": "ducksalad", "result": 0}, {"measurement": "Plant response rating, Rice (Flood)", "setting": "rice", "result": 0}, {"measurement": "Plant response rating, Sedge, Umbrella (Flood)", "setting": "sedge, umbrella", "result": 0}]}
